Measurements published in patent publication US9011936B2, “Extract of Rosmarinus officinalis L. leaves for pharmaceutical applications” (Naturex, S.A., priority 2009, dated 2015).

Experiments:
[1] = system: LDL; assay: Cu^2+-induced LDL oxidation in vitro (conjugated dienes, absorbance at 234 nm); type: biochemical; parameters: key to Lag phase / Oxidation rate / Maximum quantity of dienes: NC: Not calculated since the samples totally inhibits the LDL from oxidation
Experimental: LDL was concentrated from the plasma of normolipidemic donors by density gradient ultracentrifugation. Prior to oxidation, LDL was diluted in a phosphate buffered saline (PBS) and dialyzed against PBS at 4° C. to remove EDTA. The protein content was determined and adjusted to obtain 0.125 mg of protein/mL. […] The amounts of conjugated dienes were measured by determining the increased absorbance at 234 nm at 10 min intervals for a course span of 720 min using a Tecan Ultra Spectrophotometer (Tecan, Austria). Results were expressed as the relative absorbance at 234 nm. The lag phase, oxidation rate, and the maximum quantity of conjugated dienes were calculated. Results are reported as the mean±SD of three trials for each test. Differential between groups was calculated using the Student's t-test (XLSTAT 2008, Addinsoft™, USA), and the statistical significance was set at P<0.05.

[2] = biological target: T1, pancreatic lipase (Homo sapiens, UniProt P16233); settings: cited from earlier work
T1 sequence (P16233 17-465): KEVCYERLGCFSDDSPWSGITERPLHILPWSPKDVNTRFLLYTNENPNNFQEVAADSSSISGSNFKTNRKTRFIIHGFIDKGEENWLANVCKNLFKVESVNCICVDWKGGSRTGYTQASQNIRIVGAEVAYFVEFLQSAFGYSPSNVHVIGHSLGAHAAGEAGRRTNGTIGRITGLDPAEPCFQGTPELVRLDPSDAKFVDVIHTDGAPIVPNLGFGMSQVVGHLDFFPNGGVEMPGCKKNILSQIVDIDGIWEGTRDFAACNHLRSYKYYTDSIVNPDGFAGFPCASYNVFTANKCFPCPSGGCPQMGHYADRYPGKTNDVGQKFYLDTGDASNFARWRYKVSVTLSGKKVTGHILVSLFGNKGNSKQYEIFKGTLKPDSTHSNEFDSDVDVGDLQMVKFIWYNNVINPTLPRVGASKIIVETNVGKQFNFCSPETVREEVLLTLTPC

[3] = system: olive oil-loaded mice; settings: doses of 5-20 mg/kg; cited from earlier work
[4] = system: mice fed a high fat diet; settings: 20 mg/kg/day; after 14 days; cited from earlier work
[5] = biological target: T2, human PPARγ (Homo sapiens, UniProt P37231); settings: cited from earlier work
T2 sequence (P37231 1-505): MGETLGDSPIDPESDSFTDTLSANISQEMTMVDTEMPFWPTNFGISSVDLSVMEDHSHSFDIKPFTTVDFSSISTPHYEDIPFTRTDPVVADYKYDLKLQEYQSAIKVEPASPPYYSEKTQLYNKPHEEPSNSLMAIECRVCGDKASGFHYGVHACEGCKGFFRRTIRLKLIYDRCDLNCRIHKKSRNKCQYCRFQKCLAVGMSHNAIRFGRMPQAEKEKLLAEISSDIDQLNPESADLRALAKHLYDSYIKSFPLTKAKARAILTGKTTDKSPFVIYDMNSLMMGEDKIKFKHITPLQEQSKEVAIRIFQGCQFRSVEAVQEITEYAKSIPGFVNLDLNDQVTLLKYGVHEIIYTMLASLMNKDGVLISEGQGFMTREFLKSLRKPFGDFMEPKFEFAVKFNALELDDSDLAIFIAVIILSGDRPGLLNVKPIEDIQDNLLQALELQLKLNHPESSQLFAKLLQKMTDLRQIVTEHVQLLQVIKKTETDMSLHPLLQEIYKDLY

Row | Structure (SMILES) | Lag phase ([1]; 10 μM, mean ± SD, three trials) [min] | Maximum quantity of dienes ([1]; 10 μM, mean ± SD, three trials) | Oxidation rate ([1]; 10 μM, mean ± SD, three trials) [min⁻¹] | Lag phase ([1]; 100 μM) | Maximum quantity of dienes ([1]; 100 μM) | Oxidation rate ([1]; 100 μM) | inhibition of LDL oxidation ([1]; 100 μM) | pancreatic lipase activity [2] | triglyceride elevation [3] | gain of body weight and accumulation of epididymal fat weight [4] | activation of human PPARγ [5]
1 | Cc1c(C)c2c(c(C)c1O)CCC(C)(C(=O)O)O2 (stereo not shown) [Trolox] | 180 ± 5.2 | 99.0 ± 1.2 nmol/mg of LDL | 80.1 ± 4.1 | NC | NC | NC | complete inhibition |  |  |  | 
2 | CC(C)c1cc2c(c(O)c1O)[C@@]1(C(=O)O)CCCC(C)(C)[C@@H]1CC2 [carnosic acid] |  |  |  |  |  |  |  | substantially inhibited | significantly inhibited | reduced | activators
3 | CC(C)c1cc2c(c(O)c1O)[C@@]13CCCC(C)(C)[C@@H]1C[C@@H]2OC3=O [carnosol] |  |  |  |  |  |  |  | substantially inhibited |  |  | activators
